According to patent publication US10081662B2, “Modified relaxin B chain peptides” (The Florey Institute of Neuroscience and Mental Health, priority 2014, dated 2018):
Read-outs that look alike come from different tables or passages of the source. Peptide text beside a SMILES is read from it.

Legend:
[1] = biological target: T1, fusion protein comprising the extracellular domain of RXFP1 and the transmembrane domain of CD8 (7BP cells) (Homo sapiens, UniProt Q9HBX9); assay: Eu-labelled H2 relaxin competition binding to 7BP cells
T1 construct: the extracellular domain of RXFP1 and the transmembrane domain of CD8; expressed in transfected cells
T1 sequence (Q9HBX9 1-409 limits assumed): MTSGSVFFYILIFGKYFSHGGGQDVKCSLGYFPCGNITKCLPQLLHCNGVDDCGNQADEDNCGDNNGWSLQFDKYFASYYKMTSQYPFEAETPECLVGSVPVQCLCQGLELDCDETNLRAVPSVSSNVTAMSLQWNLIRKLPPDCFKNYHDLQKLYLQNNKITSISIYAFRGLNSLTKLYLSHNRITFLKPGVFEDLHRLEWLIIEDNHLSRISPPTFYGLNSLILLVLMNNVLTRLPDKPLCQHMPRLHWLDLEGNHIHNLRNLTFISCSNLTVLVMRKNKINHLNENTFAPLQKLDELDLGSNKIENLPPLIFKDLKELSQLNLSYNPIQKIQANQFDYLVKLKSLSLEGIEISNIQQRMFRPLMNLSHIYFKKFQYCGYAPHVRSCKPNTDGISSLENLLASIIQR

RXFP1 [2] = biological target: T2, RXFP1 (Homo sapiens, UniProt Q9HBX9); assay: cAMP reporter gene assay (pCRE β-galactosidase) in HEK-293T cells transfected with RXFP1; assay type: cell-based
T2 construct: expressed in transfected cells; host or cells: HEK-293T
T2 sequence (Q9HBX9 1-757): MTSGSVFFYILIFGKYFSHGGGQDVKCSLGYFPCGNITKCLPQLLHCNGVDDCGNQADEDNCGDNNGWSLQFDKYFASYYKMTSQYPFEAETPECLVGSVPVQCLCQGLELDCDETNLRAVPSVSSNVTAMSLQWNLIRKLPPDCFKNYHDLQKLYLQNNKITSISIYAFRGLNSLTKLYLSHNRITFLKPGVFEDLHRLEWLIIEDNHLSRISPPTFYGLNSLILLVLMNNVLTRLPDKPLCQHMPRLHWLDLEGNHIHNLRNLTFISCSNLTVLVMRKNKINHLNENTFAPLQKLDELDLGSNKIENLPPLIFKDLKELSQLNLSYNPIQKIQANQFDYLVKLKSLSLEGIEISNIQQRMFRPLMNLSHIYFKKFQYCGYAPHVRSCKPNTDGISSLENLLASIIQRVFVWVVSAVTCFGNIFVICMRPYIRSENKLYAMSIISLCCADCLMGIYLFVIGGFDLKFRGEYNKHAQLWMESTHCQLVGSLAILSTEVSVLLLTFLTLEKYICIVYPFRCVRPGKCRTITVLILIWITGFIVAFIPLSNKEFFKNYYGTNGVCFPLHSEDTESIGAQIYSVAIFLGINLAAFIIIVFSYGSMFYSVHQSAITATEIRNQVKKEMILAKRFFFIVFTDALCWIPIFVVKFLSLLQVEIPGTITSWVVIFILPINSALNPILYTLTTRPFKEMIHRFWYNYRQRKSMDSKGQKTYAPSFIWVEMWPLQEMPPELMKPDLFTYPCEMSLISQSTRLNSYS
Procedure: The ability of the relaxin-2 B chain peptide derivatives generated in Example 1 to stimulate cAMP response was also evaluated, using a cAMP reporter gene assay as described previously (Scott et al., 2006, J Biol Chem. 281, 34942-34954). HEK-293T cells co-transfected with either RXFP1 or RXFP2, or 7BP cells, and a pCRE β-galactosidase reporter plasmid were plated in 96-well plates. After 24 hours, the co-transfected cells were incubated with increasing concentrations of peptides in parallel to 10 nM of H2 relaxin or INSL3 for RXFP1- or RXFP2-transfected cells respectively. The amount of cAMP-driven β-galactosidase expression in each well was assessed with a colorimetric assay measuring absorbance at 570 nm on a microplate spectrophotometer. Ligand-induced cAMP stimulation was expressed as a percentage of maximal response of H2 relaxin or INSL3 for RXFP1 and RXFP2 cells respectively. Each data point was measured in triplicate and each experiment conducted independently at least three separate times. Statistical differences in pEC50 values were analyzed using one-way ANOVA coupled to Newman Keul's multiple comparison test for multiple group comparisons in GraphPad Prism 6.

RXFP1 [3] = biological target: T2, RXFP1; assay: Eu-labelled H2 relaxin competition binding, whole HEK-293T cells stably transfected with RXFP1
Procedure: Human embryonic kidney (HEK-293T) cells stably transfected with RXFP1 were cultured in RPMI 1640 medium supplemented with 10% fetal calf serum, 100 μg/ml penicillin, 100 μg/ml streptomycin and 2 mM L-glutamine and plated into 96-well pre-coated with poly-L-lysine for whole cell binding assays. Competition binding experiments were conducted with Eu^3+-labelled H2 relaxin (as per Shabanpoor et al., 2012, Biochem Biophys Res Commun. 420, 253-256) in the absence or presence of increasing concentrations of unlabelled relaxin-2 B chain derivatives. Nonspecific binding was determined with an excess of unlabelled peptides (500 nM H2 relaxin). Fluorescent measurements were recorded at an excitation wavelength of 340 nm and emission of 614 nm on a Victor plate reader (Perkin-Elmer Inc.). […] Statistical differences in pIC50 values were analyzed using one-way analysis of variance coupled to Newman Keul's multiple comparison test for multiple group comparisons in GraphPad Prism 6.

[4] = Solubility of relaxin B chain peptides in aqueous solution
[5] = 7BP cells, competition with Eu-labelled H2 relaxin, n ≥ 3, read-out: 7BP Eu-H2 pKi (converted)
[6] = HEK-293T cells co-transfected with RXFP1 and pCRE β-galactosidase reporter, n ≥ 3, read-out: RXFP1 cAMP pEC50 (converted)
[7] = HEK-293T cells stably transfected with RXFP1, competition with Eu-labelled H2 relaxin, mean ± S.E, n ≥ 3, read-out: RXFP1 Eu-H2 pKi (converted)

SMILES	Ki [1, 5] [µM]	EC50 (RXFP1 [2]; [6]) [µM]	Ki (RXFP1 [3]; [7]) [µM]	Ki [1] [µM]	EC50 (RXFP1 [2]) [µM]	Ki (RXFP1 [3]) [µM]	Solubility at concentration 4 mg/ml ([4]; 4 mg/ml, FIG. 1)	Aqueous solubility (in words) ([4]; aqueous solution)
CC[C@H](C)[C@H](NC(=O)[C@H](C)NC(=O)[C@@H](NC(=O)[C@H](CCC(N)=O)NC(=O)[C@H](C)NC(=O)[C@H](CCCNC(=N)N)NC(=O)[C@@H](NC(=O)[C@H](CC(C)C)NC(=O)[C@H](CCC(=O)O)NC(=O)[C@H](CCCNC(=N)N)NC(=O)CNC(=O)[C@H](CO)NC(=O)[C@H](CC(C)C)NC(=O)[C@H](CCCCN)NC(=O)[C@@H](NC(=O)[C@@H](NC(C)=O)C(C)C)[C@@H](C)CC)C(C)C)[C@@H](C)CC)C(=O)N[C@@H](CO)C(=O)NCC(=O)N[C@@H](CCSC)C(=O)N[C@@H](CO)C(=O)N[C@H](C(=O)N[C@@H](Cc1c[nH]c2ccccc12)C(=O)N[C@@H](CO)C(=O)N[C@@H](CCCCN)C(=O)N[C@@H](CCCCN)C(=O)N[C@@H](CCCCN)C(=O)N[C@@H](CCCCN)C(N)=O)[C@@H](C)O [KKKK (AcB7-29 C11.23S)] (Ac-VIKLSGRELVRAQIAISGMSTWSKKKK-NH2)	0.00123	1.55	0.562					
CC[C@H](C)[C@H](NC(=O)[C@H](C)NC(=O)[C@@H](NC(=O)[C@H](CCC(N)=O)NC(=O)[C@H](C)NC(=O)[C@H](C)NC(=O)[C@@H](NC(=O)[C@H](CC(C)C)NC(=O)[C@H](CCC(=O)O)NC(=O)[C@H](CCCNC(=N)N)NC(=O)CNC(=O)[C@H](CO)NC(=O)[C@H](CC(C)C)NC(=O)[C@H](CCCCN)NC(=O)[C@@H](NC(=O)[C@@H](NC(C)=O)C(C)C)[C@@H](C)CC)C(C)C)[C@@H](C)CC)C(=O)N[C@@H](CO)C(=O)NCC(=O)N[C@@H](CCSC)C(=O)N[C@@H](CO)C(=O)N[C@H](C(=O)N[C@@H](Cc1c[nH]c2ccccc12)C(=O)N[C@@H](CO)C(=O)N[C@@H](CCCCN)C(=O)N[C@@H](CCCNC(=N)N)C(=O)N[C@@H](CO)C(=O)N[C@@H](CC(C)C)C(N)=O)[C@@H](C)O [R17A (AcB7-33 C11.23S)] (Ac-VIKLSGRELVAAQIAISGMSTWSKRSL-NH2)	0.977	> 10	> 10					
CC[C@H](C)[C@H](NC(=O)[C@H](C)NC(=O)[C@@H](NC(=O)[C@H](CCC(N)=O)NC(=O)[C@H](C)NC(=O)[C@H](CCCNC(=N)N)NC(=O)[C@@H](NC(=O)[C@H](CC(C)C)NC(=O)[C@H](CCC(=O)O)NC(=O)[C@H](C)NC(=O)CNC(=O)[C@H](CO)NC(=O)[C@H](CC(C)C)NC(=O)[C@H](CCCCN)NC(=O)[C@@H](NC(=O)[C@@H](NC(C)=O)C(C)C)[C@@H](C)CC)C(C)C)[C@@H](C)CC)C(=O)N[C@@H](CO)C(=O)NCC(=O)N[C@@H](CCSC)C(=O)N[C@@H](CO)C(=O)N[C@H](C(=O)N[C@@H](Cc1c[nH]c2ccccc12)C(=O)N[C@@H](CO)C(=O)N[C@@H](CCCCN)C(=O)N[C@@H](CCCNC(=N)N)C(=O)N[C@@H](CO)C(=O)N[C@@H](CC(C)C)C(N)=O)[C@@H](C)O [R13A (AcB7-33 C11.23S)] (Ac-VIKLSGAELVRAQIAISGMSTWSKRSL-NH2)	1.74	> 10	> 10					
CC[C@H](C)[C@H](NC(=O)[C@H](C)NC(=O)[C@H](C)NC(=O)[C@H](CCC(N)=O)NC(=O)[C@H](C)NC(=O)[C@H](C)NC(=O)[C@@H](NC(=O)[C@H](CC(C)C)NC(=O)[C@H](CCC(=O)O)NC(=O)[C@H](C)NC(=O)CNC(=O)[C@H](CO)NC(=O)[C@H](CC(C)C)NC(=O)[C@H](CCCCN)NC(=O)[C@@H](NC(=O)[C@@H](NC(C)=O)C(C)C)[C@@H](C)CC)C(C)C)C(=O)N[C@@H](CO)C(=O)NCC(=O)N[C@@H](CCSC)C(=O)N[C@@H](CO)C(=O)N[C@H](C(=O)N[C@@H](Cc1c[nH]c2ccccc12)C(=O)N[C@@H](CO)C(=O)N[C@@H](CCCCN)C(=O)N[C@@H](CCCNC(=N)N)C(=O)N[C@@H](CO)C(=O)N[C@@H](CC(C)C)C(N)=O)[C@@H](C)O [R13/17A. I20A (AcB7-33 C11.23S)] (Ac-VIKLSGAELVAAQAAISGMSTWSKRSL-NH2)				2.88	> 10	> 10		
CC[C@H](C)[C@H](NC(=O)[C@H](C)NC(=O)[C@@H](NC(=O)[C@H](CCC(N)=O)NC(=O)[C@H](C)NC(=O)[C@H](CCCNC(=N)N)NC(=O)[C@@H](NC(=O)[C@H](CC(C)C)NC(=O)[C@H](CCC(=O)O)NC(=O)[C@H](CCCNC(=N)N)NC(=O)CNC(=O)[C@H](CS)NC(=O)[C@H](CC(C)C)NC(=O)[C@H](CCCCN)NC(=O)[C@@H](NC(=O)[C@@H](NC(=O)[C@H](CCC(=O)O)NC(=O)[C@H](CCC(=O)O)NC(=O)[C@H](CCSC)NC(=O)[C@H](Cc1c[nH]c2ccccc12)NC(=O)[C@H](CO)NC(=O)[C@@H](N)CC(=O)O)C(C)C)[C@@H](C)CC)C(C)C)[C@@H](C)CC)C(=O)N[C@@H](CS)C(=O)NCC(=O)N[C@@H](CCSC)C(=O)N[C@@H](CO)C(=O)N[C@H](C(=O)N[C@@H](Cc1c[nH]c2ccccc12)C(=O)N[C@@H](CO)C(N)=O)[C@@H](C)O [H2 B chain]							insoluble	insoluble in aqueous solution
CC[C@H](C)[C@H](NC(=O)[C@H](C)NC(=O)[C@@H](NC(=O)[C@H](CCC(N)=O)NC(=O)[C@H](C)NC(=O)[C@H](CCCNC(=N)N)NC(=O)[C@@H](NC(=O)[C@H](CC(C)C)NC(=O)[C@H](CCC(=O)O)NC(=O)[C@H](CCCNC(=N)N)NC(=O)CNC(=O)[C@H](CO)NC(=O)[C@H](CC(C)C)NC(=O)[C@H](CCCCN)NC(=O)[C@@H](NC(=O)[C@@H](NC(C)=O)C(C)C)[C@@H](C)CC)C(C)C)[C@@H](C)CC)C(=O)N[C@@H](CO)C(=O)NCC(=O)N[C@@H](CCSC)C(=O)N[C@@H](CO)C(=O)N[C@H](C(=O)N[C@@H](Cc1c[nH]c2ccccc12)C(=O)N[C@@H](CO)C(=O)N[C@@H](CCCCN)C(=O)N[C@@H](CCCNC(=N)N)C(=O)N[C@@H](CO)C(=O)N[C@@H](CC(C)C)C(N)=O)[C@@H](C)O [AcB7-33 C11.23S] (Ac-VIKLSGRELVRAQIAISGMSTWSKRSL-NH2)	0.0288	3.98	1					
